Source: patent publication US10590078B2, “Sodium channel blockers” (Daewoong Pharmaceutical Co., Ltd., priority 2015, dated 2020)

Each compound was assayed against human sodium ion channel 1.7 (hNav1.7) (Homo sapiens, UniProt Q15858) (assay: Blocking effect against sodium ion channel Nav1.7, IonFlux16 auto patch clamp in hNav1.7 HEK293 cells). Conditions: hNav1.7 HEK293 cells; inhibition of peak current after 50 seconds treatment; eight concentrations; read-out: IC50.
Sequence of human sodium ion channel 1.7 (hNav1.7) (Q15858 whole entry): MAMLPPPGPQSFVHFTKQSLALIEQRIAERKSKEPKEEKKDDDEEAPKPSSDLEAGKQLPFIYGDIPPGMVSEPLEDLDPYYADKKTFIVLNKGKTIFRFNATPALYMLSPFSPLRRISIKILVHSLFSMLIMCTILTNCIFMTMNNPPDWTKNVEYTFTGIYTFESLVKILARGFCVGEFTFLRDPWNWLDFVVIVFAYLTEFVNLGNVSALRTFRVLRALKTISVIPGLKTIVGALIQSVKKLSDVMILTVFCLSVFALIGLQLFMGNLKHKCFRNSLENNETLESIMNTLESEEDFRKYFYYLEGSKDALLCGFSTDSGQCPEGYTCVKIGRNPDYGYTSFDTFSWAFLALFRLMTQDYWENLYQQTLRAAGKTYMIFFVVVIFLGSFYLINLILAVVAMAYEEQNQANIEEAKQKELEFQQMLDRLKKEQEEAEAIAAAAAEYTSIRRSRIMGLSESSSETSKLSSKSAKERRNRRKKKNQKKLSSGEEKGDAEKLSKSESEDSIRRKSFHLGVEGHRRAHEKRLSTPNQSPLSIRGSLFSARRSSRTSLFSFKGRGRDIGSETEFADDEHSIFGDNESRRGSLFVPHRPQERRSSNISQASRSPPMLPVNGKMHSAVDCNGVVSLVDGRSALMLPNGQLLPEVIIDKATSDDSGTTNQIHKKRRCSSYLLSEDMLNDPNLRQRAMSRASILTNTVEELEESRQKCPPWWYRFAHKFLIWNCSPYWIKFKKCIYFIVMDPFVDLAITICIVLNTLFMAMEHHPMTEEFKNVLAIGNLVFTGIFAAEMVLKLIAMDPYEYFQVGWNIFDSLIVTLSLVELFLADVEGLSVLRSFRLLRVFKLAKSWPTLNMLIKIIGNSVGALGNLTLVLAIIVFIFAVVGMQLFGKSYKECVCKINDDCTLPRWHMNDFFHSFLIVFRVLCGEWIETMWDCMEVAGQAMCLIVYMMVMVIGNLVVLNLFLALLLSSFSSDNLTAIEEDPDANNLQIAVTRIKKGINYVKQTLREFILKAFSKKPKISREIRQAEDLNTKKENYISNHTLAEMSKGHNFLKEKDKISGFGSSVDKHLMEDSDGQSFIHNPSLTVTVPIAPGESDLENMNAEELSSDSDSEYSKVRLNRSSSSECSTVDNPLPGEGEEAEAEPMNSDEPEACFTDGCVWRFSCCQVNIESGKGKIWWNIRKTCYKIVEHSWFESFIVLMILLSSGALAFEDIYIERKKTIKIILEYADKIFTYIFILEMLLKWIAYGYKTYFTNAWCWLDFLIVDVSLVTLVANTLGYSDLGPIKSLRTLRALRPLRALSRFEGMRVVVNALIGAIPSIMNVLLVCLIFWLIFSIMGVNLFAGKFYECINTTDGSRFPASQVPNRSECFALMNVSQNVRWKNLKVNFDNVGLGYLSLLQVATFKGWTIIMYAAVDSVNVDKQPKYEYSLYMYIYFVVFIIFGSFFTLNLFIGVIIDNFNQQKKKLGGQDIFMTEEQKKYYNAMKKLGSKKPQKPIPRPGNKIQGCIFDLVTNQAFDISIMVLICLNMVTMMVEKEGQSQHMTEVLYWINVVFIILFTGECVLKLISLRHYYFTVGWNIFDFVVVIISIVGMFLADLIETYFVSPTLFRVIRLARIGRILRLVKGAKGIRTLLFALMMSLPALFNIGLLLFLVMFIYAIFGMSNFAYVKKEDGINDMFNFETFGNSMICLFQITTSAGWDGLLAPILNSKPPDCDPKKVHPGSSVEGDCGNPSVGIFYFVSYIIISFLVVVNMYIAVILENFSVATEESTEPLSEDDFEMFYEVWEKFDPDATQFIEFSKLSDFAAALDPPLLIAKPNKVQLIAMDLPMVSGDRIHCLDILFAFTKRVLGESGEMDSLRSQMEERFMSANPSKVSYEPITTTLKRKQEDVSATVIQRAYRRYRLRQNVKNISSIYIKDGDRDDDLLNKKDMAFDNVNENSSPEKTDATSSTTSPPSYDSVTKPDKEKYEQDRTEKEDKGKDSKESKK
Assay type: cell-based
For `Cc1cc(F)ccc1-c1cn(-c2cc(F)c(C(=O)NS(C)(=O)=O)cc2Cl)c2ncc(F)cc12` [Example 212, 5-chloro-2-fluoro-4-(5-fluoro-3-(4-fluoro-2-methylphenyl)-1H-pyrrolo[2,3-b]pyridin-1-yl)-N-(methylsulfonyl)benzamide], the IC50 was 180 nM. For `CS(=O)(=O)NC(=O)c1cc(Cl)c(-n2cc(-c3ccccc3F)c3cccnc32)cc1F` [Example 213, 5-chloro-2-fluoro-4-(3-(2-fluorophenyl)-1H-pyrrolo[2,3-b]pyridin-1-yl)-N-(methylsulfonyl)benzamide], the IC50 was 720 nM. In the case of `CS(=O)(=O)NC(=O)c1cc(Cl)c(-n2cc(-c3cccc(F)c3)c3cccnc32)cc1F` [Example 214, 5-chloro-2-fluoro-4-(3-(3-fluorophenyl)-1H-pyrrolo[2,3-b]pyridin-1-yl)-N-(methylsulfonyl)benzamide], the IC50 is reported as 340 nM. In the case of `Cc1cccc(-c2cn(-c3cc(F)c(C(=O)NS(C)(=O)=O)cc3Cl)c3ncccc23)c1` [Example 215, 5-chloro-2-fluoro-N-(methylsulfonyl)-4-(3-(m-tolyl)-1H-pyrrolo[2,3-b]pyridin-1-yl)benzamide], the IC50 is reported as 210 nM. `CS(=O)(=O)NC(=O)c1cc(Cl)c(-n2cc(-c3ccccc3C(F)(F)F)c3cccnc32)cc1F` [Example 216, 5-chloro-2-fluoro-N-(methylsulfonyl)-4-(3-(2-(trifluoromethyl)phenyl)-1H-pyrrolo[2,3-b]pyridin-1-yl)benzamide] was tested, and the IC50 was 370 nM. With `CS(=O)(=O)NC(=O)c1cc(Cl)c(-n2cc(-c3cccc(C(F)(F)F)c3)c3cccnc32)cc1F` [Example 217, 5-chloro-2-fluoro-N-(methylsulfonyl)-4-(3-(3-(trifluoromethyl)phenyl)-1H-pyrrolo[2,3-b]pyridin-1-yl)benzamide] the IC50 was 530 nM. `CS(=O)(=O)NC(=O)c1cc(Cl)c(-n2cc(-c3ccc(C(F)(F)F)cc3)c3cccnc32)cc1F` [Example 218, 5-chloro-2-fluoro-N-(methylsulfonyl)-4-(3-(4-(trifluoromethyl)phenyl)-1H-pyrrolo[2,3-b]pyridin-1-yl)benzamide] gave an IC50 of 290 nM. Compound `CS(=O)(=O)NC(=O)c1cc(Cl)c(-n2cc(-c3cc(Cl)ccc3F)c3cccnc32)cc1F` [Example 219, 5-chloro-4-(3-(5-chloro-2-fluorophenyl)-1H-pyrrolo[2,3-b]pyridin-1-yl)-2-fluoro-N-(methylsulfonyl)benzamide] has an IC50 of 300 nM. `CS(=O)(=O)NC(=O)c1cc(Cl)c(-n2cc(-c3cc(F)cc(Cl)c3)c3cccnc32)cc1F` [Example 220, 5-chloro-4-(3-(3-chloro-5-fluorophenyl)-1H-pyrrolo[2,3-b]pyridin-1-yl)-2-fluoro-N-(methylsulfonyl)benzamide] was tested, and the IC50 was 540 nM. Compound `CS(=O)(=O)NC(=O)c1cc(Cl)c(-n2cc(-c3cccc(Cl)c3)c3cccnc32)cc1F` [Example 221, 5-chloro-4-(3-(3-chlorophenyl)-1H-pyrrolo[2,3-b]pyridin-1-yl)-2-fluoro-N-(methylsulfonyl)benzamide] has an IC50 of 970 nM. With `CS(=O)(=O)NC(=O)c1cc(Cl)c(-n2cc(-c3cccc(Cl)c3F)c3cccnc32)cc1F` [Example 222, 5-chloro-4-(3-(3-chloro-2-fluorophenyl)-1H-pyrrolo[2,3-b]pyridin-1-yl)-2-fluoro-N-(methylsulfonyl)benzamide] the IC50 was 410 nM. For `CS(=O)(=O)NC(=O)c1cc(Cl)c(-n2cc(-c3ccc(Cl)c(F)c3)c3cccnc32)cc1F` [Example 223, 5-chloro-4-(3-(4-chloro-3-fluorophenyl)-1H-pyrrolo[2,3-b]pyridin-1-yl)-2-fluoro-N-(methylsulfonyl)benzamide], the IC50 was 230 nM. `CS(=O)(=O)NC(=O)c1cc(Cl)c(-n2cc(-c3ccc(Cl)cc3)c3cccnc32)cc1F` [Example 224, 5-chloro-4-(3-(4-chlorophenyl)-1H-pyrrolo[2,3-b]pyridin-1-yl)-2-fluoro-N-(methylsulfonyl)benzamide] showed an IC50 of 280 nM. `CS(=O)(=O)NC(=O)c1cc(Cl)c(-n2cc(-c3ccccc3Cl)c3cccnc32)cc1F` [Example 225, 5-chloro-4-(3-(2-chlorophenyl)-1H-pyrrolo[2,3-b]pyridin-1-yl)-2-fluoro-N-(methylsulfonyl)benzamide] showed an IC50 of 460 nM. For `CS(=O)(=O)NC(=O)c1cc(Cl)c(-n2cc(-c3ccc(F)cc3)c3cccnc32)cc1F` [Example 226, 5-chloro-2-fluoro-4-(3-(4-fluorophenyl)-1H-pyrrolo[2,3-b]pyridin-1-yl)-N-(methylsulfonyl)benzamide], the IC50 was 400 nM. For `CS(=O)(=O)NC(=O)c1cc(Cl)c(-n2cc(-c3ccc(F)cc3F)c3cccnc32)cc1F` [Example 229, 5-chloro-4-(3-(2,4-difluorophenyl)-1H-pyrrolo[2,3-b]pyridin-1-yl)-2-fluoro-N-(methylsulfonyl)benzamide], the IC50 was 180 nM. Work on `CS(=O)(=O)NC(=O)c1cc(Cl)c(-n2nc(Cl)c3cc(-c4ccccc4)ccc32)cc1F` [Example 230, 5-chloro-4-(3-chloro-5-phenyl-1H-indazol-1-yl)-2-fluoro-N-(methylsulfonyl)benzamide] yielded an IC50 of 144 nM. `CS(=O)(=O)NC(=O)c1cc(Cl)c(-n2nc(Cl)c3cc(-c4cccnc4)ccc32)cc1F` [Example 231, 5-chloro-4-(3-chloro-5-(pyridin-3-yl)-1H-indazol-1-yl)-2-fluoro-N-(methylsulfonyl)benzamide] was tested, and the IC50 was 3000 to 10000 nM. In the case of `CS(=O)(=O)NC(=O)c1cc(Cl)c(-n2nc(Cl)c3cc(-c4ccncc4)ccc32)cc1F` [Example 232, 5-chloro-4-(3-chloro-5-(pyridin-4-yl)-1H-indazol-1-yl)-2-fluoro-N-(methylsulfonyl)benzamide], the IC50 is reported as 1000 to 3000 nM. `Cc1cccc(-c2ccc3c(c2)c(Cl)nn3-c2cc(F)c(C(=O)NS(C)(=O)=O)cc2Cl)c1` [Example 233, 5-chloro-4-(3-chloro-5-(m-tolyl)-1H-indazol-1-yl)-2-fluoro-N-(methylsulfonyl)benzamide] showed an IC50 of 68 nM. For `CS(=O)(=O)NC(=O)c1cc(Cl)c(-n2nc(Cl)c3cc(-c4ccccc4F)ccc32)cc1F` [Example 234, 5-chloro-4-(3-chloro-5-(2-fluorophenyl)-1H-indazol-1-yl)-2-fluoro-N-(methylsulfonyl)benzamide], the IC50 was 111 nM. `CS(=O)(=O)NC(=O)c1cc(Cl)c(-n2nc(Cl)c3cc(-c4cccc(F)c4)ccc32)cc1F` [Example 235, 5-chloro-4-(3-chloro-5-(3-fluorophenyl)-1H-indazol-1-yl)-2-fluoro-N-(methylsulfonyl)benzamide] was tested, and the IC50 was 89 nM. `CS(=O)(=O)NC(=O)c1cc(Cl)c(-n2nc(Cl)c3cc(-c4ccc(F)cc4)ccc32)cc1F` [Example 236, 5-chloro-4-(3-chloro-5-(4-fluorophenyl)-1H-indazol-1-yl)-2-fluoro-N-(methylsulfonyl)benzamide] gave an IC50 of 71 nM. Work on `CS(=O)(=O)NC(=O)c1cc(Cl)c(-n2nc(Cl)c3cc(-c4ccccc4C#N)ccc32)cc1F` [Example 237, 5-chloro-4-(3-chloro-5-(2-cyanophenyl)-1H-indazol-1-yl)-2-fluoro-N-(methylsulfonyl)benzamide] yielded an IC50 of over 10000 nM. Compound `CS(=O)(=O)NC(=O)c1cc(Cl)c(-n2nc(Cl)c3cc(-c4cc(C#N)ccc4F)ccc32)cc1F` [Example 238, 5-chloro-4-(3-chloro-5-(5-cyano-2-fluorophenyl)-1H-indazol-1-yl)-2-fluoro-N-(methylsulfonyl)benzamide] has an IC50 of 341 nM. With `CS(=O)(=O)NC(=O)c1cc(Cl)c(-n2nc(Cl)c3cc(-c4ccc(F)c(C#N)c4)ccc32)cc1F` [Example 239, 5-chloro-4-(3-chloro-5-(3-cyano-4-fluorophenyl)-1H-indazol-1-yl)-2-fluoro-N-(methylsulfonyl)benzamide] the IC50 was 283 nM. With `CS(=O)(=O)NC(=O)c1cc(Cl)c(-n2nc(Cl)c3cc(-c4ccc(C#N)cc4)ccc32)cc1F` [Example 240, 5-chloro-4-(3-chloro-5-(4-cyanophenyl)-1H-indazol-1-yl)-2-fluoro-N-(methylsulfonyl)benzamide] the IC50 was 752 nM. Work on `CS(=O)(=O)NC(=O)c1cc(Cl)c(-n2nc(Cl)c3cc(-c4cncnc4)ccc32)cc1F` [Example 241, 5-chloro-4-(3-chloro-5-(pyrimidin-5-yl)-1H-indazol-1-yl)-2-fluoro-N-(methylsulfonyl)benzamide] yielded an IC50 of over 10000 nM. `CS(=O)(=O)NC(=O)c1cc(Cl)c(-n2nc(Cl)c3cc(-c4cncc(Cl)c4)ccc32)cc1F` [Example 242, 5-chloro-4-(3-chloro-5-(5-chloropyridin-3-yl)-1H-indazol-1-yl)-2-fluoro-N-(methylsulfonyl)benzamide] showed an IC50 of 809 nM. Work on `CS(=O)(=O)NC(=O)c1cc(Cl)c(-n2nc(Cl)c3cc(-c4ccc(F)cc4F)ccc32)cc1F` [Example 243, 5-chloro-4-(3-chloro-5-(2,4-difluorophenyl)-1H-indazol-1-yl)-2-fluoro-N-(methylsulfonyl)benzamide] yielded an IC50 of 175 nM. `CS(=O)(=O)NC(=O)c1cc(Cl)c(-n2nc(Cl)c3cc(-c4cccnc4F)ccc32)cc1F` [Example 244, 5-chloro-4-(3-chloro-5-(2-fluoropyridin-3-yl)-1H-indazol-1-yl)-2-fluoro-N-(methylsulfonyl)benzamide] showed an IC50 of 2320 nM. Compound `CS(=O)(=O)NC(=O)c1cc(Cl)c(-n2nc(Cl)c3cc(-c4ccc(F)nc4)ccc32)cc1F` [Example 245, 5-chloro-4-(3-chloro-5-(6-fluoropyridin-3-yl)-1H-indazol-1-yl)-2-fluoro-N-(methylsulfonyl)benzamide] has an IC50 of 1670 nM. `CS(=O)(=O)NC(=O)c1cc(Cl)c(-n2nc(Cl)c3cc(-c4ccc(F)nc4F)ccc32)cc1F` [Example 246, 5-chloro-4-(3-chloro-5-(2,6-difluoropyridin-3-yl)-1H-indazol-1-yl)-2-fluoro-N-(methylsulfonyl)benzamide] was tested, and the IC50 was 1050 nM. With `CS(=O)(=O)NC(=O)c1cc(Cl)c(-n2nc(Cl)c3cc(-c4ccc(Cl)cc4F)ccc32)cc1F` [Example 247, 5-chloro-4-(3-chloro-5-(4-chloro-2-fluorophenyl)-1H-indazol-1-yl)-2-fluoro-N-(methylsulfonyl)benzamide] the IC50 was 304 nM. `COc1ccc(-c2ccc3c(c2)c(Cl)nn3-c2cc(F)c(C(=O)NS(C)(=O)=O)cc2Cl)cc1` [Example 248, 5-chloro-4-(3-chloro-5-(4-methoxyphenyl)-1H-indazol-1-yl)-2-fluoro-N-(methylsulfonyl)benzamide] gave an IC50 of 88 nM.
